In PMC8397297 (ACS Chemical Neuroscience, 2021):
Read-outs that look alike come from different tables or passages of the source. Each block holds one compound with its values, some of them ahead of it.

Experiments:
[1] = target: T1, mGAT2 (Mus musculus, UniProt P31651); details: cited from earlier work; for remaining [3H]GABA uptake mGAT2: 100 μM inhibitor
T1 construct: expressed in transfected cells; host or cells: HEK-293
T1 sequence (P31651 1-614): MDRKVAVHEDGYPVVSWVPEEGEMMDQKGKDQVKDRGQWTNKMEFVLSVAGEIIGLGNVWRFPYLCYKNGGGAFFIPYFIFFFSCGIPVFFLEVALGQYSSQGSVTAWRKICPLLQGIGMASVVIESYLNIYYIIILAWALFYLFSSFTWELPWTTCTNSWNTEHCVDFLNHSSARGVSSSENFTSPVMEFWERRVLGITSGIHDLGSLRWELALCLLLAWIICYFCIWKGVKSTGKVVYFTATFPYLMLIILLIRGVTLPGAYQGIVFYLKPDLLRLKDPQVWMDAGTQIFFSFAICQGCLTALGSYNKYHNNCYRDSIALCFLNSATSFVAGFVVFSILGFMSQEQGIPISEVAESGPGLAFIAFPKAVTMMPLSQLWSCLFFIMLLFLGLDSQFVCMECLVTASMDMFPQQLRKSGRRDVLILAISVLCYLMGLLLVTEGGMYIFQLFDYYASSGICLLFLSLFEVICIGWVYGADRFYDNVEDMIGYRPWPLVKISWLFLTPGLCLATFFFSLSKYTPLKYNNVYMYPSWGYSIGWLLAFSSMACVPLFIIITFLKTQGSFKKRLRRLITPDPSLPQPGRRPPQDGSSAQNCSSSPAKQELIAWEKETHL

[2] = target: T2, mGAT1 (Mus musculus, UniProt P31648); details: Figure 2; cited from earlier work
T2 construct: expressed in transfected cells; host or cells: HEK-293

[3] = target: T3, mGAT3 (Mus musculus, UniProt P31649); details: cited from earlier work
T3 construct: expressed in transfected cells; host or cells: HEK-293
T3 sequence (P31649 1-602): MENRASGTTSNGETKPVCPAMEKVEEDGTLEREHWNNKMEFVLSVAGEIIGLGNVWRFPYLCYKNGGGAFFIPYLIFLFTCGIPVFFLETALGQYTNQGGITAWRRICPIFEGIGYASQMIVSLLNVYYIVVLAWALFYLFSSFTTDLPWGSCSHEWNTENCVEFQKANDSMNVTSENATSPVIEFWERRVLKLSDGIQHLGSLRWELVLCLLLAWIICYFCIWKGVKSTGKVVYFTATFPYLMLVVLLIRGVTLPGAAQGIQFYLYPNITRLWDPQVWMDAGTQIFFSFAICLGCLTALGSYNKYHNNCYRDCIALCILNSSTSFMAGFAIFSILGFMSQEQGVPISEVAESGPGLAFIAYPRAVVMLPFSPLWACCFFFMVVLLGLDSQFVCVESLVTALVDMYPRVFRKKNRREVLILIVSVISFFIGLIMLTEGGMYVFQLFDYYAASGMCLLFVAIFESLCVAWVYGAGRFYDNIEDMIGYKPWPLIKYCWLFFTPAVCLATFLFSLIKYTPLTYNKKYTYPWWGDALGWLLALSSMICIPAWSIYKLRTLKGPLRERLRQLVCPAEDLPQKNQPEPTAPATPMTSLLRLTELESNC

[4] = target: T4, mGAT4 (Mus musculus, UniProt P31650); details: cited from earlier work
T4 construct: expressed in transfected cells; host or cells: HEK-293
T4 sequence (P31650 1-627): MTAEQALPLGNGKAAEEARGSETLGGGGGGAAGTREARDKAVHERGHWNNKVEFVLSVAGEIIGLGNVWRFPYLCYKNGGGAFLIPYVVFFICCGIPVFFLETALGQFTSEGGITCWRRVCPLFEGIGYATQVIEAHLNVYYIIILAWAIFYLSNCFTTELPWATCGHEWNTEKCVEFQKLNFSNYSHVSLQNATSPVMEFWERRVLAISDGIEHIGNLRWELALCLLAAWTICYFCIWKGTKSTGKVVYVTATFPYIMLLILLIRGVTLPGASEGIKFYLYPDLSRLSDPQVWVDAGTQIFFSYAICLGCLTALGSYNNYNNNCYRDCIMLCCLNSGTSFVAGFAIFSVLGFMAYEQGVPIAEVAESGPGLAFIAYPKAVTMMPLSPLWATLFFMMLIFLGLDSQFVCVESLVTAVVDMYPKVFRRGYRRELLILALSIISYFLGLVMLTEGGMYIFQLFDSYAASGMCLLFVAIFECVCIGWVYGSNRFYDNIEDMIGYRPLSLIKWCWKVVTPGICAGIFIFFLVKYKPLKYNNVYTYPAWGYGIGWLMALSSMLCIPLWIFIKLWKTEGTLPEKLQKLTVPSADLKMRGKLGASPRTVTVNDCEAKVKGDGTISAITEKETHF

[5] = target: T2, mGAT1; details: 100 μM inhibitor; cited from earlier work
[6] = target: T2, mGAT1; assay: [3H]GABA uptake assay in HEK-293 cells stably expressing mGAT1; type: cell-based; details: in the presence of 100 μM inhibitor
[7] = target: T1, mGAT2; assay: [3H]GABA uptake assay in HEK-293 cells stably expressing mGAT2; type: cell-based; details: in the presence of 100 μM inhibitor
[8] = target: T3, mGAT3; assay: [3H]GABA uptake assay in HEK-293 cells stably expressing mGAT3; type: cell-based; details: for IC50: [3H]GABA uptake, read-out: pIC50 ± SEM mGAT3 (converted); for remaining [3H]GABA uptake mGAT3: in the presence of 100 μM inhibitor
[9] = target: T4, mGAT4; assay: [3H]GABA uptake assay in HEK-293 cells stably expressing mGAT4; type: cell-based; details: for IC50: [3H]GABA uptake, read-out: pIC50 ± SEM mGAT4 (converted); for remaining [3H]GABA uptake mGAT4: in the presence of 100 μM inhibitor
[10] = target: T2, mGAT1; assay: competitive MS binding assay with NO711 as unlabeled marker (LC-ESI-MS/MS); details: for remaining NO711 binding mGAT1: in the presence of 100 μM inhibitor
Summary of the method: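 Competitive MS binding with unlabeled NO711 as marker, quantified by LC–ESI-MS/MS. Compounds screened at 100 μM for inhibition of marker binding.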

SMILES: COc1ccc(C(OCCN2CCC[C@H](C(=O)O)C2)(c2ccc(OC)cc2)c2ccc(OC)cc2)cc1 [(S)-SNAP-5114, (S)-1-{2-[Tris(4-methoxyphenyl)methoxy]ethyl}piperidine-3-carboxylic acid]
- remaining [3H]GABA uptake mGAT2 [1]: 100 μM: 56%
- mGAT2 % (100μM) [1]: 56%

SMILES: O=C(O)[C@@H]1CCCN(CCC#Cc2ccccc2-c2ccc(F)cc2Cl)C1 [Compound 7]
- pIC50 mGAT1 [2]: 7.68
- mGAT2 % (100μM) [1]: 55%
- pIC50 mGAT3 ([3]; Figure 2): 4.56
- pIC50 mGAT4 ([4]; Figure 2): 4.29

SMILES: COc1ccc(C(OCCN2CCC[C@H](C(=O)O)C2)(c2ccc(OC)cc2)c2ccc(-c3ccc(C=O)cc3)cc2)cc1 [Compound 11]
- mGAT2 % (100μM) [1]: 73%
- pIC50 mGAT3 ([3]; Figure 2): 5.16

SMILES: O=C1Nc2ccc(-c3cccs3)cc2C1=O [Compound 12]
- pIC50 mGAT1 [2]: < 3
- pIC50 mGAT2 ([1]; Figure 2): 3.21

SMILES: Cc1ccsc1C(=CCCN(C)C(CCO)C(=O)NCc1ccccc1Cl)c1sccc1C (stereo not drawn) [Compound 13]
- pIC50 mGAT2 ([1]; [3H]GABA uptake): 4.98 ± 0.05
- pIC50 mGAT3 ([3]; [3H]GABA uptake): 5.31 ± 0.04
- remaining NO711 binding mGAT1 [5]: 100 μM: 77%

- remaining [3H]GABA uptake mGAT1 [6]: 100 μM: 52%
- remaining [3H]GABA uptake mGAT2 [7]: 100 μM: 54%
- IC50 [8]: 21.9 µM
- IC50 [9]: 63.1 µM
- remaining NO711 binding mGAT1 [10]: 100 μM: 103%
SMILES: CCOC(=O)[C@H](C)N(C)CCC=C1c2ccccc2C=Cc2ccccc21 [Compound 71, Ethyl N-(3-(5H-Dibenzo[a,d][7]annulen-5-ylidene)propyl)-N-methylalaninate]

- remaining [3H]GABA uptake mGAT1 [6]: 100 μM: 98%
- remaining [3H]GABA uptake mGAT2 [7]: 100 μM: 63%
- remaining [3H]GABA uptake mGAT3 [8]: 100 μM: 86%
- remaining [3H]GABA uptake mGAT4 [9]: 100 μM: 97%
- remaining NO711 binding mGAT1 [10]: 100 μM: 109%
SMILES: C[C@@H](C(=O)OCc1ccccc1)N(C)CCC=C1c2ccccc2C=Cc2ccccc21 [Compound 72, Benzyl N-(3-(5H-Dibenzo[a,d][7]annulen-5-ylidene)propyl)-N-methylalaninate]

- remaining [3H]GABA uptake mGAT1 [6]: 100 μM: 55%
- remaining [3H]GABA uptake mGAT2 [7]: 100 μM: 52%
- IC50 [8]: 25.1 µM
- IC50 [9]: 52.5 µM
- remaining NO711 binding mGAT1 [10]: 100 μM: 94%
SMILES: CCOC(=O)C(C)N(C)CCC=C(c1sccc1C)c1sccc1C (stereo not drawn) [Compound 73, Ethyl 2-((4,4-Bis(3-methylthiophen-2-yl)but-3-en-1-yl)(methyl)amino)propanoate]

- remaining [3H]GABA uptake mGAT1 [6]: 100 μM: 55%
- remaining [3H]GABA uptake mGAT2 [7]: 100 μM: 55%
- remaining [3H]GABA uptake mGAT3 [8]: 100 μM: 62%
- remaining [3H]GABA uptake mGAT4 [9]: 100 μM: 77%
- Ki ([10]; MS binding assay, read-out: pKi ± SEM mGAT1 (converted)): 28.8 µM
SMILES: C[C@@H](C(=O)O)N(C)CCC=C1c2ccccc2C=Cc2ccccc21 [Compound 74, N-(3-(5H-Dibenzo[a,d][7]annulen-5-ylidene)propyl)-N-methylalanine]

- remaining [3H]GABA uptake mGAT1 [6]: 100 μM: 71%
- remaining [3H]GABA uptake mGAT2 [7]: 100 μM: 59%
- remaining [3H]GABA uptake mGAT3 [8]: 100 μM: 52%
- remaining [3H]GABA uptake mGAT4 [9]: 100 μM: 60%
- remaining NO711 binding mGAT1 [10]: 100 μM: 81%
SMILES: Cc1ccsc1C(=CCCN(C)C(C)C(=O)O)c1sccc1C (stereo not drawn) [Compound 75, 2-((4,4-Bis(3-methylthiophen-2-yl)but-3-en-1-yl)(methyl)amino)propanoic Acid]

SMILES: O=C(O)C1=CCCN(CCO/N=C/c2ccccc2-c2ccc(Cl)cc2Cl)C1 [DDPM-2571]
- pIC50 mGAT3 ([3]; [3H]GABA uptake): 4.35

SMILES: Cc1ccsc1C(=CCCN1CCC[C@@H](C(=O)O)C1)c1sccc1C [tiagabine, (R)-1-[4,4-bis(3-methyl-2-thienyl)-3-butenyl]-3-piperidinecarboxylic acid]
- remaining [3H]GABA uptake mGAT2 [1]: 100 μM: 52%
- remaining [3H]GABA uptake mGAT3 ([3]; 100 μM inhibitor): 100 μM: 64%
- mGAT3 % (100μM) ([3]; 100μM): 64%
- remaining [3H]GABA uptake mGAT4 ([4]; 100 μM inhibitor): 100 μM: 73%
- mGAT4 % (100μM) ([4]; 100μM): 73%

SMILES: NCCC(=O)O [β-alanine]
- pIC50 mGAT2 ([1]; Figure 2): 2.96
